In article PMC8437142 (The Journal of physiology, 2021):

How the values were obtained:
opioid receptors = conditions: ref Lewis et al., 2010; Doyle & Murphy, 2018; cited from earlier work
[1] = Serum morphine and metabolites by UPLC-MS/MS after s.c. morphine; conditions: rat, sc, 4 mg/kg

CN1CC[C@]23c4c5ccc(O[C@@H]6O[C@H](C(=O)O)[C@@H](O)[C@H](O)[C@H]6O)c4O[C@H]2[C@@H](O)C=C[C@H]3[C@H]1C5 [Morphine-3-glucuronide, morphine-3-glucuronide]
affinity for opioid receptors (opioid receptors): no affinity

CN1CC[C@]23c4c5ccc(O)c4O[C@H]2[C@@H](O[C@@H]2O[C@H](C(=O)O)[C@@H](O)[C@H](O)[C@H]2O)C=C[C@H]3[C@H]1C5 [Morphine-6-glucuronide, morphine-6-glucuronide]
concentration at 4.5 h [1]: < 1 ng/mL
